Laboratory results: patent US20240107999A1, “ANTIBACTERIAL COMPOSITION” (LG CHEM, LTD., priority 2021, published 2024)

Assays:
P. mirabilis (ATCC29906) [1] = experiment: Antibacterial strength (bacteriostatic reduction rate) by Methods 1 to 4, broth culture absorbance at 600 nm; type: cell-based; conditions: Proteus mirabilis, 16 hours, 35° C.; for inhibition of growth at 200 µg/mL: amount of antibacterial composition added 0.005 g in 25 ml broth, 3,000 CFU/ml, read-out: Antibacterial strength (%) Method 2; for inhibition of growth at 400 µg/mL: amount of antibacterial composition added 0.01 g in 25 ml broth, 3,000 CFU/ml, read-out: Antibacterial strength (%) Method 4; for inhibition of growth at 600 µg/mL: amount of antibacterial composition added 0.015 g in 25 ml broth, 3,000 CFU/ml, read-out: Antibacterial strength (%) Method 1; for inhibition of growth at 800 µg/mL: amount of antibacterial composition added 0.02 g in 25 ml broth, 3,000 CFU/ml, read-out: Antibacterial strength (%) Method 3
Experimental: (§1) After 25 ml of a broth-type medium (Nutrient broth, BD DIFCO., 8 g/L) inoculated with 3,000 CFU/ml bacteria is put into a 50 mL conical tube, 0.015 g of the antibacterial composition is added thereto and suspended (by vortexing), a sufficiently mixed solution is incubated for 16 hours in a shaking water bath maintained at 35° C.
(§2) After the incubated solution was diluted to ⅕ using a 1×PBS buffer solution, absorbance (λ=600 nm) was measured using a UV/Vis spectrophotometer, and the antibacterial strength, which is a bacteriostatic reduction rate, is calculated by the following equation by comparing the measured absorbance with a solution incubated without the addition of the antibacterial composition.
(§3) Antibacterial strength(%)=(1−Asample/AReference)×100 • Asample=Absorbance of medium solution incubated by adding antibacterial composition • AReference=Absorbance of medium solution incubated without addition of antibacterial composition
(§4) This method is the same as Method 1, except that 0.005 g of the antibacterial composition is added instead of 0.015 g of the antibacterial composition.
(§5) This method is the same as Method 1, except that 0.02 g of the antibacterial composition is added instead of 0.015 g of the antibacterial composition.
(§6) This method is the same as Method 1, except that 0.01 g of the antibacterial composition is added instead of 0.015 g of the antibacterial composition.
The antibacterial strength of Monomers 1 to 10 and Comparative Monomers 1 and 2 by Methods 1 to 4 was measured, and is shown in the following Table 1. In this case, the P. mirabilis (ATCC29906) bacteria were used.

P. mirabilis (ATCC29906) [2] = experiment: Time at which 99.9% of the antibacterial strength is confirmed (Methods 1 to 4); type: cell-based, Proteus mirabilis; conditions: for Time at which 99.9% of the antibacterial strength is confirmed, Method 2: amount of antibacterial composition added 0.005 g; for Time at which 99.9% of the antibacterial strength is confirmed, Method 4: amount of antibacterial composition added 0.01 g; for Time at which 99.9% of the antibacterial strength is confirmed, Method 1: amount of antibacterial composition added 0.015 g; for Time at which 99.9% of the antibacterial strength is confirmed, Method 3: amount of antibacterial composition added 0.02 g
Experimental: as §1, §2, §3, §4, §5, §6
The time at which 99.9% of the antibacterial strength of Monomers 1 to 10 and Comparative Monomers 1 and 2 is confirmed is shown in the following Table 2.

[3] = Acute oral toxicity dose LD50 by 3T3 Neutral Red Uptake (NRU) assay (OECD Guidance Document No 129); type: cell-based; conditions: mouse, 3T3 cells, po, calculated from 3T3 NRU assay
Experimental: (§7) The acute oral toxicity dose LD50 and acute percutaneous toxicity dose LD50 were measured by 3T3 Neutral Red Uptake (NRU) assay (OECD Guidance Document No 129). Specifically, the acute oral toxicity dose LD50 and acute percutaneous toxicity dose LD50 can be calculated by the following method: […]

3T3 = experiment: as above; type: cell-based; conditions: calculated from 3T3 NRU assay
Experimental: as §7

[4] = Acute percutaneous toxicity dose LD50 by 3T3 Neutral Red Uptake (NRU) assay (OECD Guidance Document No 129); type: cell-based; conditions: mouse, 3T3 cells, other: percutaneous, calculated from 3T3 NRU assay
Experimental: as §7

## C=C(C)C(=O)OCC[N+](CCCC)(CCCCCC)CCCCCCCCCC (stereo not drawn) [Monomer 6]
P. mirabilis (ATCC29906) [1]
  inhibition of growth at 200 µg/mL: 99.9%
  inhibition of growth at 400 µg/mL: 99.9%
  inhibition of growth at 600 µg/mL: 99.9%
  inhibition of growth at 800 µg/mL: 99.9%
P. mirabilis (ATCC29906) [2]
  Time at which 99.9% of the antibacterial strength is confirmed, Method 2: Within 1 hour
  Time at which 99.9% of the antibacterial strength is confirmed, Method 4: Within 1 hour
  Time at which 99.9% of the antibacterial strength is confirmed, Method 1: Within 1 hour
  Time at which 99.9% of the antibacterial strength is confirmed, Method 3: Within 1 hour
[3]
  LD50: ≥ 1000 mg/kg
3T3
  Acute oral toxicity dose (mg/Kg) LD50: 1,111 mg/Kg
[4]
  LD50: ≥ 2000 mg/kg

## C=CC(=O)OCC[N+](CCCC)(CCCC)CCCCCCCCCCCC [Monomer 3]
P. mirabilis (ATCC29906) [1]
  inhibition of growth at 200 µg/mL: 99.9%
  inhibition of growth at 400 µg/mL: 99.9%
  inhibition of growth at 600 µg/mL: 99.9%
P. mirabilis (ATCC29906) [2]
  Time at which 99.9% of the antibacterial strength is confirmed, Method 2: Within 1 hour
  Time at which 99.9% of the antibacterial strength is confirmed, Method 4: Within 1 hour
  Time at which 99.9% of the antibacterial strength is confirmed, Method 1: Within 1 hour
  Time at which 99.9% of the antibacterial strength is confirmed, Method 3: Within 1 hour
[3]
  LD50: 843 mg/kg
[4]
  LD50: ≥ 2000 mg/kg

## C=C(C)C(=O)OCC[N+](CCCC)(CCCCCCCC)CCCCCCCCCC (stereo not drawn) [Monomer 7]
P. mirabilis (ATCC29906) [1]
  inhibition of growth at 200 µg/mL: 99.9%
  inhibition of growth at 400 µg/mL: 99.9%
  inhibition of growth at 600 µg/mL: 99.9%
  inhibition of growth at 800 µg/mL: 99.9%
P. mirabilis (ATCC29906) [2]
  Time at which 99.9% of the antibacterial strength is confirmed, Method 2: Within 1 hour
  Time at which 99.9% of the antibacterial strength is confirmed, Method 4: Within 1 hour
  Time at which 99.9% of the antibacterial strength is confirmed, Method 1: Within 1 hour
  Time at which 99.9% of the antibacterial strength is confirmed, Method 3: Within 1 hour
[3]
  LD50: 998 mg/kg
[4]
  LD50: ≥ 2000 mg/kg

## C=C(C)C(=O)OCC[N+](CCCCCC)(CCCCCC)CCCCCCCCCC [Monomer 5]
P. mirabilis (ATCC29906) [1]
  inhibition of growth at 200 µg/mL: 99.9%
  inhibition of growth at 400 µg/mL: 99.9%
  inhibition of growth at 600 µg/mL: 99.9%
  inhibition of growth at 800 µg/mL: 99.9%
P. mirabilis (ATCC29906) [2]
  Time at which 99.9% of the antibacterial strength is confirmed, Method 2: Within 1 hour
  Time at which 99.9% of the antibacterial strength is confirmed, Method 4: Within 1 hour
  Time at which 99.9% of the antibacterial strength is confirmed, Method 1: Within 1 hour
  Time at which 99.9% of the antibacterial strength is confirmed, Method 3: Within 1 hour
[3]
  LD50: ≥ 1000 mg/kg
3T3
  Acute oral toxicity dose (mg/Kg) LD50: 1,078 mg/Kg
[4]
  LD50: ≥ 2000 mg/kg

## C=CC(=O)OCC[N+](CCCC)(CCCC)CCCCCC [Comparative Monomer 1, reference compound]
P. mirabilis (ATCC29906) [1]
  inhibition of growth at 200 µg/mL: 22.6%
  inhibition of growth at 400 µg/mL: 30.7%
  inhibition of growth at 600 µg/mL: 38.8%
  inhibition of growth at 800 µg/mL: 46.9%
[3]
  LD50: 2360 mg/kg

## C=CC(=O)OCC[N+](CCCC)(CCCC)CCCCCCCCCC [Monomer 2]
P. mirabilis (ATCC29906) [1]
  inhibition of growth at 200 µg/mL: 99.9%
  inhibition of growth at 400 µg/mL: 99.9%
  inhibition of growth at 600 µg/mL: 99.9%
  inhibition of growth at 800 µg/mL: 99.9%
P. mirabilis (ATCC29906) [2]
  Time at which 99.9% of the antibacterial strength is confirmed, Method 2: Within 1 hour
  Time at which 99.9% of the antibacterial strength is confirmed, Method 4: Within 1 hour
  Time at which 99.9% of the antibacterial strength is confirmed, Method 1: Within 1 hour
  Time at which 99.9% of the antibacterial strength is confirmed, Method 3: Within 1 hour
[3]
  LD50: ≥ 1000 mg/kg
3T3
  Acute oral toxicity dose (mg/Kg) LD50: 1,369 mg/Kg
[4]
  LD50: ≥ 2000 mg/kg
